Structures can show the parent of a compound that is named as a salt.
Columns and labels:
[1] = tested on: antibody formation (anti-SRBC plaque-forming cells); assay: Inhibitory activity against antibody formation (anti-SRBC plaque-forming cells in spleen); format: in vivo, mouse (CDF1-SLC female); settings: once a day for three consecutive days, minus shows an increase of antibody formation
Protocol: (b) Inhibitory activity against antibody formation
Test groups and a control group of CDF1 -SLC female mice (each group: five mice) were intravenously sensitized with 1×10^8 /0.2 ml of sheep red blood cells (SRBC). A compound of the present invention was dissolved in a physiological saline solution in various concentrations. Each of the resulting solutions was administered to one of the test groups once a day for three consecutive days from the next day of the sensitization, in an amount of 0.1 ml/10 g (body weight)/day. The physiological saline solution was administered to the control group.
In the fourth day from the sensitization, all the mice were killed and the number of anti-SRBC plaque-forming cells (PFC) in the spleen cells of each mouse was measured. From this number, the PFC number per 10^6 of spleen cells was calculated. The effect of the present compound was expressed as an inhibition percentage (%) of PFC number of test group as compared with control group. [formula]
(§1) In Tables and 5, a control compound is included. This compound is such that in the general formula [I], X is [drawing 59] R is --CH2 OH and both of R1 and R2 are --H.

mice = assay: Acute toxicity: administration amount causing acute death to mice; format: in vivo
Protocol: A compound of the present invention was dissolved in a physiological saline solution in various concentrations. Each of the resulting solutions was intraperitoneally administered to one of CDF1 -SLC female mice (one group: two to three mice) in an amount of 0.1 ml per 10 g of body weight. The highest concentration of present compound in solution was 400 mg/10 ml/kg, and starting from this solution of highest concentration, solutions of lower concentrations were prepared each time at a common ratio of 2. The administration amount of present compound with the lowest concentration solution with which at least one mouse died was taken as an administration amount of acute toxicity.
as §1

mouse leukemia L1210 = assay: Life prolongation effect to mouse leukemia L1210; format: in vivo, mouse (CDF1-SLC female); settings: once a day for nine consecutive days, 125 or more is effective, read-out: T/C × 100 (life prolongation percentage); for response vs control in vivo at 0.39 mg/kg: 0.39 mg/kg/day; for response vs control in vivo at 0.78 mg/kg: 0.78 mg/kg/day; for response vs control in vivo at 1.56 mg/kg: 1.56 mg/kg/day; for response vs control in vivo at 3.13 mg/kg: 3.13 mg/kg/day; for response vs control in vivo at 6.25 mg/kg: 6.25 mg/kg/day; for response vs control in vivo at 12.5 mg/kg: 12.50 mg/kg/day; for response vs control in vivo at 25 mg/kg: 25.00 mg/kg/day; for response vs control in vivo at 50 mg/kg: 50.00 mg/kg/day
Protocol: 3. Life prolongation effect of present compound to mouse leukemia cells L1210 and its toxicity
1×10^5 /0.2 ml/mouse of mouse leukemia cells L1210 were intraperitoneally transplanted to test groups and a control group of CDF1 -SLC female mice (each group: four mice). A compound of the present invention was dissolved in a physiological saline solution in various concentrations and each of the resulting solutions was administered to one of the test groups once a day for nine consecutive days from the next day of the transplantation, in an amount of 0.1 ml/10 g (body weight)/day. The physiological saline solution was administered to the control group.
All the mice of the test groups and the control group were observed from the next day of the L1210 transplantation to examine their days of survival, and the average days of survival (T) of each test group and the average days of survival (C) of the control group were calculated. The life prolongation percentage of the present compound was expressed as (T/C)×100.
It is believed that a (T/C)×100 of 125 or more is effective.
as §1

[2] = Administration amount 1.56 mg/kg
[3] = Administration amount 6.25 mg/kg

Row | Structure (SMILES) | Inhibitory percentage (antibody formation, PFC number vs control group) [1, 2] | Inhibitory percentage (antibody formation, PFC number vs control group) [1, 3] | Administration amount causing acute death to mice (mice; mouse, in vivo, ip) | response vs control in vivo at 0.39 mg/kg (mouse leukemia L1210) | response vs control in vivo at 0.78 mg/kg (mouse leukemia L1210) | response vs control in vivo at 1.56 mg/kg (mouse leukemia L1210) | response vs control in vivo at 3.13 mg/kg (mouse leukemia L1210) | response vs control in vivo at 6.25 mg/kg (mouse leukemia L1210) | response vs control in vivo at 12.5 mg/kg (mouse leukemia L1210) | response vs control in vivo at 25 mg/kg (mouse leukemia L1210) | response vs control in vivo at 50 mg/kg (mouse leukemia L1210) | Administration amount causing acute death to mice (mice; intraperitoneal, single, lowest amount with which at least one mouse died)
1 | N=C(N)Nc1ccc(CCCC(=O)N[C@@H](CO)C(=O)NCCCCNCCCNC(=O)[C@@H](N)c2ccccc2)cc1 [Compound No. 1, 10-{N-[4-(4-GP)butanoyl]-L-Ser}-1-L-PhG-1,5,10-TAD trihydrochloride] | 87% | 97% | 100 mg/kg | 146% | 195% | 296% | 269% | 315% | 278% | 294% | 327% | –
2 | CC(C)C[C@H](N)C(=O)NCCCNCCCCNC(=O)[C@H](CO)NC(=O)CCCc1ccc(NC(=N)N)cc1 [Compound No. 2, 10-{N-[4-(4-GP)butanoyl)-L-Ser}-1-L-] | 60% | 92% | – | 136% | 152% | 244% | 331% | 300% | 272% | 281% | 53% | –
3 | CC(C)C[C@@H](N)C(=O)NCCCNCCCCNC(=O)[C@H](CO)NC(=O)CCCc1ccc(NC(=N)N)cc1 [Compound No. 3, 10-{N-[4-(4-GP)butanoyl]-L-Ser}-1-D-Leu-1,5,10-TAD trihydrochloride] | – | – | – | – | – | – | – | – | – | – | – | 100 mg/kg
4 | N=C(N)Nc1ccc(CCCC(=O)N[C@@H](CO)C(=O)NCCCCNCCCNC(=O)[C@H](N)c2ccccc2)cc1 [Compound No. 4, trihydrochloride] | 68% | 95% | 100 mg/kg | 125% | 149% | 195% | 228% | 237% | 243% | 247% | 197% | –
5 | N=C(N)Nc1ccc(CCCC(=O)N[C@@H](CO)C(=O)NCCCCNCCCNC(=O)[C@@H](N)Cc2ccccc2)cc1 [Compound No. 5, 10-{N-[4-(4-GP)butanoyl]-L-Ser}-1-L-Phe-1,5,10-TAD trihydrochloride] | – | – | 100 mg/kg | 123% | 133% | 146% | 265% | 290% | 290% | 284% | 253% | –
6 | N=C(N)Nc1ccc(CCCC(=O)N[C@@H](CO)C(=O)NCCCCNCCCNC(=O)[C@@H](N)Cc2ccc(O)cc2)cc1 [Compound No. 6, 10-{N-[4-(4-GP)butanoyl]-L-Ser}-1-L-Tyr-1,5,10-TAD trihydrochloride] | – | – | 100 mg/kg | 125% | 158% | 201% | 267% | 250% | 250% | 270% | 162% | –

Source: US4956504A, “Novel spergualin-related compounds and process for producing the same” (Zaidan Hojin Biseibutsu Kagaku Kenkyu Kai, priority 1986, dated 1990)
